Reference: ChEMBL document CHEMBL1201862, “PubChem BioAssay data set” (2004)
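Five compound concentrations were applied to cells in 96-well plates for 48 hours; endpoints were derived by simple linear interpolation of the resulting dose-response curve. GI50 is the concentration that inhibits growth by half.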 Activity calls are given as the source filed them. No stated cut-off is given here; in the data, active = GI50 up to about 1.1 µM and inactive = higher. Square brackets hold non-standard residues; d marks the D form. Peptide text beside a SMILES is read from it. pGlu = O=C1CC[CH](C(=O)O)N1

Columns and labels:
Assay in all cases: DTP human tumour cell line panel, 48 h
CAKI-1 = system: CAKI-1
DU-145 = system: DU-145
EKVX = system: EKVX
HCT-116 = system: HCT-116
Hs-578T = system: Hs-578T
IGROV-1 = system: IGROV-1
KM12 = system: KM12
LOX IMVI = system: LOX IMVI
MCF7 = system: MCF7
MDA-N = system: MDA-N
NCI-H226 = system: NCI-H226
NCI/ADR-RES = system: NCI/ADR-RES
OVCAR-3 = system: OVCAR-3
SF-539 = system: SF-539
SK-MEL-2 = system: SK-MEL-2
SN12C = system: SN12C
SR = system: SR
UACC-62 = system: UACC-62
SK-OV-3 = system: SK-OV-3
OVCAR-4 = system: OVCAR-4

| SMILES | GI50 (CAKI-1) | GI50 (DU-145) | GI50 (EKVX) | GI50 (HCT-116) | GI50 (Hs-578T) | GI50 (IGROV-1) | GI50 (KM12) | GI50 (LOX IMVI) | GI50 (MCF7) | GI50 (MDA-N) | GI50 (NCI-H226) | GI50 (NCI/ADR-RES) | GI50 (OVCAR-3) | GI50 (SF-539) | GI50 (SK-MEL-2) | GI50 (SN12C) | GI50 (SR) | GI50 (UACC-62) | GI50 (SK-OV-3) | GI50 (OVCAR-4) |
| --- | --- | --- | --- | --- | --- | --- | --- | --- | --- | --- | --- | --- | --- | --- | --- | --- | --- | --- | --- | --- |
| CN(C)Cc1cc(C(=O)/C=C/c2cccc(Cl)c2)cc(CN(C)C)c1O | 1.68 µM (inactive) | 6.3 µM (inactive) | 7.03 µM (inactive) | 3.21 µM (inactive) | 11.4 µM (inactive) | 3.27 µM (inactive) | 4.97 µM (inactive) | 2.24 µM (inactive) | 4.44 µM (inactive) | 3.1 µM (inactive) | 4.31 µM (inactive) | 18.5 µM (inactive) | 2.67 µM (inactive) | 6.14 µM (inactive) | 9.25 µM (inactive) | 3.39 µM (inactive) | 2.28 µM (inactive) | 6.56 µM (inactive) |  |  |
| CC(NC(=O)C(Cc1c[nH]cn1)NC(=O)C1CCC(=O)N1)C(N)=O (stereo not drawn) ([pGlu]-His-Ala-NH2; configuration not given here) |  | > 100 µM (inactive) | > 100 µM (inactive) | > 100 µM (inactive) | > 100 µM (inactive) | > 100 µM (inactive) | > 100 µM (inactive) | > 100 µM (inactive) | > 100 µM (inactive) | > 100 µM (inactive) | > 100 µM (inactive) | > 10 µM (inactive) | > 100 µM (inactive) |  |  | > 100 µM (inactive) | > 100 µM (inactive) | > 100 µM (inactive) | > 100 µM (inactive) |  |
| Cc1ccc([N+](=O)[O-])cc1S(=O)(=O)Nc1ccc(C2=NN(c3ccc([N+](=O)[O-])cc3[N+](=O)[O-])C(c3cccs3)C2)cc1 (stereo not given) | 25.5 µM (inactive) | 25.8 µM (inactive) | 15.8 µM (inactive) | 14.9 µM (inactive) | 23.8 µM (inactive) | 16.2 µM (inactive) | 21 µM (inactive) | 18.3 µM (inactive) | 17.3 µM (inactive) | 16.2 µM (inactive) | 22.2 µM (inactive) | 17.2 µM (inactive) | 16.1 µM (inactive) | 27 µM (inactive) | 12.1 µM (inactive) | 18 µM (inactive) | 21 µM (inactive) |  | 26.1 µM (inactive) | 18.5 µM (inactive) |
| Nc1nc(Nc2ccccc2)sc1C(=O)c1c[nH]c2ccccc12 |  | 9.89 µM (inactive) | 5.94 µM (inactive) | 6.97 µM (inactive) | 16.3 µM (inactive) | 12.9 µM (inactive) | 10.2 µM (inactive) | 13.5 µM (inactive) | 11.8 µM (inactive) | 12.4 µM (inactive) | 10.6 µM (inactive) | 12.6 µM (inactive) | 13.4 µM (inactive) | 12.4 µM (inactive) | 15.1 µM (inactive) | 15.7 µM (inactive) | 1.45 µM (inactive) | 14.8 µM (inactive) | 16.6 µM (inactive) | 10.3 µM (inactive) |
| CCC(Cc1cnc2nc(N)nc(N)c2n1)c1ccc(C(=O)NC(CCC(=O)O)C(=O)O)cc1 (stereo not given) | 0.01 µM (active) | 0.000548 µM (active) | 0.000249 µM (active) | < 0.0001 µM (active) | 10.7 µM (inactive) |  | 0.00069 µM (active) | 0.000247 µM (active) | 0.0628 µM (active) | 0.000575 µM (active) |  | 0.000711 µM (active) |  | 0.01 µM (active) |  | 0.000551 µM (active) | 0.01 µM (active) | 0.000396 µM (active) |  |  |
| Cc1n[nH]c(=O)n1/N=C\c1ccccc1 | > 100 µM (inactive) | > 100 µM (inactive) | > 100 µM (inactive) | > 100 µM (inactive) | > 100 µM (inactive) | > 100 µM (inactive) | > 100 µM (inactive) | > 100 µM (inactive) | > 100 µM (inactive) | > 100 µM (inactive) | > 100 µM (inactive) | > 100 µM (inactive) | > 100 µM (inactive) | > 100 µM (inactive) | 83.9 µM (inactive) | > 100 µM (inactive) | > 100 µM (inactive) | > 100 µM (inactive) |  | > 100 µM (inactive) |
